In the supplement of paper PMC13207355:
± gives the standard deviation of the averaged measurements.

What was measured:
Settings in all cases: exposure time: 72 h
E31 [1] = patient-derived glioblastoma stem cells of proneural subtype; assay: surviving fraction (nuclei count normalised to DMSO); higher = more cells surviving (less toxic)
E57 [2] = patient-derived glioblastoma stem cells of mesenchymal subtype; assay: as above
E34 [3] = patient-derived glioblastoma stem cells of proneural subtype; assay: as above
E21 [4] = patient-derived glioblastoma stem cells of mesenchymal subtype; assay: as above
E28 [5] = patient-derived glioblastoma stem cells of classical subtype; assay: as above
E13 [6] = patient-derived glioblastoma stem cells of classical subtype; assay: as above
FT3469 [7] = normal neural stem cell line; assay: as above
E31 [8] = assay: phenotypic distance (Euclidean, principal components) from DMSO controls (arbitrary units); higher = stronger morphological change
E57 [9] = assay: as above
E34 [10] = assay: as above
E21 [11] = assay: as above
E28 [12] = assay: as above
E13 [13] = assay: as above
FT3469 [14] = assay: as above
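Wherever phenotypic distance (Euclidean, principal components) from DMSO controls is given: cell Painting imaging in 384-well plates, CellProfiler features reduced to at least 20 principal components, Euclidean distance versus same-plate DMSO vehicle wells (0.1% v/v), median over six images per well.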
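Wherever surviving fraction (nuclei count normalised to DMSO) is given: nuclei counted by high-content imaging of Hoechst-stained cells in laminin-coated 384-well plates, relative to 0.1% DMSO vehicle wells, with staurosporine as cell-death control.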

O=C(/C=C/c1ccc([N+](=O)[O-])cc1)/C=C1/C(=O)Nc2ccc(F)cc21 [APIO-EE-07]
Settings | phenotypic distance | surviving fraction
E13 [6], 2.7 nM | – | 0.978 ± 0.23
E13 [6], 8.2 nM | – | 0.955 ± 0.13
E13 [6], 24.7 nM | – | 0.964 ± 0.037
E13 [6], 74.1 nM | – | 1.0673 ± 0.00064
E13 [6], 222.2 nM | – | 0.994 ± 0.06
E13 [6], 666.7 nM | – | 0.9741 ± 0.0051
E13 [6], 2000 nM | – | 0.841 ± 0.09
E13 [13], 2.7 nM | 0.638 ± 0.027 | –
E13 [13], 8.2 nM | 0.674 ± 0.096 | –
E13 [13], 24.7 nM | 0.47 ± 0.16 | –
E13 [13], 74.1 nM | 0.494 ± 0.022 | –
E13 [13], 222.2 nM | 0.491 ± 0.29 | –
E13 [13], 666.7 nM | 0.644 ± 0.16 | –
E13 [13], 2000 nM | 0.888 ± 0.24 | –
E21 [4], 2.7 nM | – | 0.996 ± 0.036
E21 [4], 8.2 nM | – | 0.929 ± 0.052
E21 [4], 24.7 nM | – | 1.04 ± 0.019
E21 [4], 74.1 nM | – | 0.991 ± 0.0045
E21 [4], 222.2 nM | – | 0.989 ± 0.067
E21 [4], 666.7 nM | – | 1.03 ± 0.03
E21 [4], 2000 nM | – | 0.642 ± 0.13
E21 [11], 2.7 nM | 0.833 ± 0.17 | –
E21 [11], 8.2 nM | 0.648 ± 0.027 | –
E21 [11], 24.7 nM | 0.526 ± 0.4 | –
E21 [11], 74.1 nM | 2.82 ± 3.1 | –
E21 [11], 222.2 nM | 0.86 ± 0.57 | –
E21 [11], 666.7 nM | 0.927 ± 0.2 | –
E21 [11], 2000 nM | 2.33 ± 0.96 | –
E28 [5], 2.7 nM | – | 1.1 ± 0.048
E28 [5], 8.2 nM | – | 0.992
E28 [5], 24.7 nM | – | 1 ± 0.085
E28 [5], 74.1 nM | – | 1.04 ± 0.13
E28 [5], 222.2 nM | – | 0.944 ± 0.04
E28 [5], 666.7 nM | – | 1.054 ± 0.0027
E28 [5], 2000 nM | – | 0.293 ± 0.091
E28 [12], 2.7 nM | 0.693 ± 0.21 | –
E28 [12], 8.2 nM | 0.629 ± 0.25 | –
E28 [12], 24.7 nM | 0.459 ± 0.0068 | –
E28 [12], 74.1 nM | 0.507 ± 0.076 | –
E28 [12], 222.2 nM | 1.59 ± 1.6 | –
E28 [12], 666.7 nM | 0.58 ± 0.064 | –
E28 [12], 2000 nM | 3.56 ± 0.092 | –
E31 [1], 2.7 nM | – | 0.971 ± 0.026
E31 [1], 8.2 nM | – | 1.07 ± 0.076
E31 [1], 24.7 nM | – | 0.973 ± 0.047
E31 [1], 74.1 nM | – | 0.943 ± 0.18
E31 [1], 222.2 nM | – | 0.958 ± 0.041
E31 [1], 666.7 nM | – | 0.951 ± 0.042
E31 [1], 2000 nM | – | 0.448 ± 0.011
E31 [8], 2.7 nM | 0.66 ± 0.099 | –
E31 [8], 8.2 nM | 0.527 ± 0.1 | –
E31 [8], 24.7 nM | 0.585 ± 0.22 | –
E31 [8], 74.1 nM | 0.697 ± 0.057 | –
E31 [8], 222.2 nM | 0.744 ± 0.16 | –
E31 [8], 666.7 nM | 0.876 ± 0.065 | –
E31 [8], 2000 nM | 1.95 ± 0.25 | –
E34 [3], 2.7 nM | – | 0.95 ± 0.023
E34 [3], 8.2 nM | – | 0.991 ± 0.17
E34 [3], 24.7 nM | – | 1 ± 0.015
E34 [3], 74.1 nM | – | 0.971 ± 0.024
E34 [3], 222.2 nM | – | 0.979 ± 0.015
E34 [3], 666.7 nM | – | 0.87 ± 0.045
E34 [3], 2000 nM | – | 0.731 ± 0.13
E34 [10], 2.7 nM | 0.787 ± 0.065 | –
E34 [10], 8.2 nM | 0.702 ± 0.28 | –
E34 [10], 24.7 nM | 0.648 ± 0.067 | –
E34 [10], 74.1 nM | 0.775 ± 0.36 | –
E34 [10], 222.2 nM | 0.511 ± 0.098 | –
E34 [10], 666.7 nM | 1.19 ± 0.3 | –
E34 [10], 2000 nM | 1.13 ± 0.095 | –
E57 [2], 2.7 nM | – | 0.99 ± 0.053
E57 [2], 8.2 nM | – | 1.01 ± 0.055
E57 [2], 24.7 nM | – | 1.03 ± 0.037
E57 [2], 74.1 nM | – | 1.04 ± 0.012
E57 [2], 222.2 nM | – | 0.999 ± 0.013
E57 [2], 666.7 nM | – | 1.02 ± 0.033
E57 [2], 2000 nM | – | 0.791 ± 0.17
E57 [9], 2.7 nM | 0.81 ± 0.045 | –
E57 [9], 8.2 nM | 0.581 ± 0.15 | –
E57 [9], 24.7 nM | 0.418 ± 0.012 | –
E57 [9], 74.1 nM | 0.557 ± 0.023 | –
E57 [9], 222.2 nM | 0.584 ± 0.069 | –
E57 [9], 666.7 nM | 0.739 ± 0.13 | –
E57 [9], 2000 nM | 2.46 ± 0.7 | –
FT3469 [7], 2.7 nM | – | 0.932 ± 0.011
FT3469 [7], 8.2 nM | – | 1.01 ± 0.034
FT3469 [7], 24.7 nM | – | 1.04 ± 0.18
FT3469 [7], 74.1 nM | – | 1.09 ± 0.055
FT3469 [7], 222.2 nM | – | 0.975 ± 0.045
FT3469 [7], 666.7 nM | – | 0.982 ± 0.02
FT3469 [7], 2000 nM | – | 0.775 ± 0.014
FT3469 [14], 2.7 nM | 0.776 ± 0.027 | –
FT3469 [14], 8.2 nM | 0.699 ± 0.17 | –
FT3469 [14], 24.7 nM | 2.24 ± 1.8 | –
FT3469 [14], 74.1 nM | 1.29 ± 0.23 | –
FT3469 [14], 222.2 nM | 0.569 ± 0.076 | –
FT3469 [14], 666.7 nM | 0.6 ± 0.36 | –
FT3469 [14], 2000 nM | 2.12 ± 1.5 | –
